Laboratory results: paper PMC8807399, “Synthesis, Characterization, and in vivo Evaluation of a Novel Potent Autotaxin-Inhibitor” (Frontiers in Pharmacology, 2022)

Key:
[1] = In vitro microsomal stability, human; assay type: in vitro ADME; conditions: human microsomes, 1 µM; value of 10 = low clearance, essentially below detection limit
Experimental: (§1) Incubations of a test compound at a concentration of 1 µM with microsomes (0.5 mg/ml) from the appropriate species (human, mouse, or rat) plus cofactor NADPH were performed in 96-well plates at 37°C on a TECAN automated liquid handling system (Tecan Group Ltd., Männedorf, Switzerland). After pre-incubation of the test compound with the microsomes for 10 min, the enzymatic reaction was started by the addition of cofactors. Aliquots of the incubations are removed at 1, 3, 6, 9, 15, 25, 35, and 45 min and are then quenched with 1:3 (v/v) acetonitrile containing internal standards. Samples were then cooled and centrifuged before analysis of the supernatant by LC-MS/MS. Logarithmic Peak area ratios (test compound peak area/internal standard peak area) were plotted against incubation time and a linear fit made to the data with emphasis upon the initial rate of compound disappearance. The slope of the fit was then used to calculate the intrinsic clearance: Clint (µL/min/mg protein) = −slope (min-1) * 1,000/[protein concentration (mg/ml)].

[2] = In vitro microsomal stability, rat; assay type: in vitro ADME; conditions: rat microsomes, 1 µM; value of 10 = low clearance, essentially below detection limit
Experimental: as §1

[3] = Glutathione addition screening; assay type: in vitro ADME; conditions: human liver microsomes + NADPH + GSH
Experimental: All sample handling was performed based on a 96-well plate format using an automated pipetting system. The test compounds, positive controls (diclofenac, troglitazone, nefazodone, 4-[[1-(4-fluorophenyl)-2-methyl-1H-imidazol-4-yl]ethynyl]-2-methylpyridine) and solvent control (DMSO) were incubated with human liver microsomes supplemented with NADPH and reduced GSH. Stable GSH conjugates whose production can be assumed to be the result of chemically reactive metabolites were detected using a quadrupole time of flight mass spectrometer run in untargeted full scan accurate mass MSE mode (Waters Xevo G1 QTOFMSE; Waters GmbH, Eschborn, Germany). This generic GSH adduct detection method and the assay workflow are taking advantage of the specific fragmentation behavior of the peptide moiety upon collision induced dissociation of GSH adducts and so are largely independent of the conjugate (“X”) itself.

[4] = target: T1, ADAM 17 (Homo sapiens, UniProt P78536); test: Off-target screen ADAM 17; assay type: biochemical; conditions: 10 µM; single point, duplicates
T1 construct: purchased Eurofins CEREP SA

[5] = target: T2, Adenosine A1 respetor (Homo sapiens, UniProt P30542); test: Off-target screen Adenosine A1; assay type: binding; conditions: 10 µM; single point, duplicates
T2 construct: purchased Eurofins CEREP SA
T2 sequence (P30542 whole entry): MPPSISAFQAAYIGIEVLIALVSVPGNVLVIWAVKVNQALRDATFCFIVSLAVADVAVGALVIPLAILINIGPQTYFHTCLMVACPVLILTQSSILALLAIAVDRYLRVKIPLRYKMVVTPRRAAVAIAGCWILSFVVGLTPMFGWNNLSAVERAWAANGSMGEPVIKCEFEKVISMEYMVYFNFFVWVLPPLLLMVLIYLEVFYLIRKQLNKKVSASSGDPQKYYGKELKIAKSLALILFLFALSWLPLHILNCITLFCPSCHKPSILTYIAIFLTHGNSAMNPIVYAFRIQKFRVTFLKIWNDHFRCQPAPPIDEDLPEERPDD

[6] = target: T3, Adenosine A3 respetor (Homo sapiens, UniProt P0DMS8); test: Off-target screen Adenosine A3; assay type: binding; conditions: 10 µM; single point, duplicates
T3 construct: purchased Eurofins CEREP SA
T3 sequence (P0DMS8 whole entry): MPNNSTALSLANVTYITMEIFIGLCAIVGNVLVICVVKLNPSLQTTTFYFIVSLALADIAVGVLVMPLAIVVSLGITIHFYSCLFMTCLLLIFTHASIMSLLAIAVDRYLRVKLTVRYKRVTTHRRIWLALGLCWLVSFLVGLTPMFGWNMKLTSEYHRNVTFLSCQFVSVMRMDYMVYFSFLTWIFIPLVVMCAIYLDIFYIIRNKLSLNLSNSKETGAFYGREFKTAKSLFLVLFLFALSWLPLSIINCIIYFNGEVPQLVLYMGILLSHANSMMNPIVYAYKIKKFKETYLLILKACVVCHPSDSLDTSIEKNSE

[7] = target: T4, Dopamine D2 receptor (Homo sapiens, UniProt P14416); test: Off-target screen Dopamine D2; assay type: binding; conditions: 10 µM; single point, duplicates
T4 construct: purchased Eurofins CEREP SA
T4 sequence (P14416 whole entry): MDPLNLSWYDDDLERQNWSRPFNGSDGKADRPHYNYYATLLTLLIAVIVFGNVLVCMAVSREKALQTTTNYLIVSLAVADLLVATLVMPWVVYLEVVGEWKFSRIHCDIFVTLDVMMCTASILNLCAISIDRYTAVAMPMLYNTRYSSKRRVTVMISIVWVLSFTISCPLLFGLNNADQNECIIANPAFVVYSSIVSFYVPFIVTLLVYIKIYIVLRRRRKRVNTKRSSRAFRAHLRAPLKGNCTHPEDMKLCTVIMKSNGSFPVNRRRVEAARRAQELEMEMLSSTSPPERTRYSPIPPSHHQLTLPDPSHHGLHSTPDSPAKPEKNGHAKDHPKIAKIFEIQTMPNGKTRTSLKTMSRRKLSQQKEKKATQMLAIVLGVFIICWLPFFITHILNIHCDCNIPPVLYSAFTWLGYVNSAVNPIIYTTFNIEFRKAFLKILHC

[8] = target: T5, Estrogen receptor alpha (Homo sapiens, UniProt P03372); test: Off-target screen Estrogen receptor alpha; assay type: binding; conditions: 10 µM; single point, duplicates
T5 construct: purchased Eurofins CEREP SA

[9] = target: T6, GSK-3B (Homo sapiens, UniProt P49841); test: Off-target screen GSK-3B; assay type: biochemical; conditions: 10 µM; single point, duplicates
T6 construct: purchased Eurofins CEREP SA

[10] = target: T7, HDAC11 (Homo sapiens, UniProt Q96DB2); test: Off-target screen HDAC11; assay type: biochemical; conditions: 10 µM; single point, duplicates
T7 construct: purchased Eurofins CEREP SA

[11] = target: T8, HDAC6 (Homo sapiens, UniProt Q9UBN7); test: Off-target screen HDAC6; assay type: biochemical; conditions: 10 µM; single point, duplicates
T8 construct: purchased Eurofins CEREP SA
T8 sequence (Q9UBN7 whole entry): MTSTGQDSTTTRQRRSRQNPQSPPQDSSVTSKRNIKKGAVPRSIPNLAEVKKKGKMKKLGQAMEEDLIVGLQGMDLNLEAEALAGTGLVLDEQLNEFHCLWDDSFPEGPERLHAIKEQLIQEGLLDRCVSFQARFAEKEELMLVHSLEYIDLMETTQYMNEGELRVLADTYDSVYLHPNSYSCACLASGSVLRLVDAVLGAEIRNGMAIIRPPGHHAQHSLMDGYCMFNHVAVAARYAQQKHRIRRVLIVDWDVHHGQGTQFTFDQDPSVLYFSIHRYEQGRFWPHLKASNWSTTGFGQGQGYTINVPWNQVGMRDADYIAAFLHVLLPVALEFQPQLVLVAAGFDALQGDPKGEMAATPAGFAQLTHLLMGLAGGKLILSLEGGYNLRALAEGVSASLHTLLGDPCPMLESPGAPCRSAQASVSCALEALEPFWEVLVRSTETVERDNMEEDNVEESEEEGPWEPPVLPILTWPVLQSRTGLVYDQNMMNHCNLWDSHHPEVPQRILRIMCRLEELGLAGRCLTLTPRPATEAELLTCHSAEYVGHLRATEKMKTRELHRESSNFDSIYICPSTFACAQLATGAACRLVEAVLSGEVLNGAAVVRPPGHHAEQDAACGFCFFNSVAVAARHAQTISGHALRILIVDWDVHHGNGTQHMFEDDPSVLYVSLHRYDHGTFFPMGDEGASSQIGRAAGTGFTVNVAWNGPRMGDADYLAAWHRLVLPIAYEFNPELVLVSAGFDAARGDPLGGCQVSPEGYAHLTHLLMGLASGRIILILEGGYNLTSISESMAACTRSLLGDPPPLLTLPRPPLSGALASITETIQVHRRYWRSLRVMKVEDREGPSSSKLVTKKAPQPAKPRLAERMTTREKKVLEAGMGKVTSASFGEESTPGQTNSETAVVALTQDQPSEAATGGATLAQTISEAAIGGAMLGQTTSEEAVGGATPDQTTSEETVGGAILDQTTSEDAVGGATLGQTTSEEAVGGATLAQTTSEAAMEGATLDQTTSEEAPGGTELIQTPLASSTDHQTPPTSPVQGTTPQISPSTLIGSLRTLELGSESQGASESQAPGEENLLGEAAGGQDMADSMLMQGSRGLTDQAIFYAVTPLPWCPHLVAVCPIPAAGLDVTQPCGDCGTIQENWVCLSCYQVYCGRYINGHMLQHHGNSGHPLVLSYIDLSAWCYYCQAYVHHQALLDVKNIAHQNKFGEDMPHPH

[12] = target: T9, Histamine H3 receptor (Homo sapiens, UniProt Q9Y5N1); test: Off-target screen Histamine H3; assay type: binding; conditions: 10 µM; single point, duplicates
T9 construct: purchased Eurofins CEREP SA
T9 sequence (Q9Y5N1 whole entry): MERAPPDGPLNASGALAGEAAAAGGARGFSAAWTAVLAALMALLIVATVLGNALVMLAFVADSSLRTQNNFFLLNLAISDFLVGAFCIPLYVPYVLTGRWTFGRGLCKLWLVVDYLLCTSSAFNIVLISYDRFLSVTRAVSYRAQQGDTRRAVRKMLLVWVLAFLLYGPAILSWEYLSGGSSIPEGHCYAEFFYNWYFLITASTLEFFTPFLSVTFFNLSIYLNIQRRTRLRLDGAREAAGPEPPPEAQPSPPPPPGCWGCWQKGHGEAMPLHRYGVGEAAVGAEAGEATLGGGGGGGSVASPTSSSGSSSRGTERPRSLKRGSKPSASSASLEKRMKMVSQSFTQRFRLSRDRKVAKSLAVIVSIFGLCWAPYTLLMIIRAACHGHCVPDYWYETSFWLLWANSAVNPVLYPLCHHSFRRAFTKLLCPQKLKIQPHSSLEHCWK

[13] = target: T10, LPA3 receptor (Homo sapiens, UniProt Q9UBY5); test: Off-target screen LPA3 receptor, agonist mode; assay type: cell-based; conditions: 10 µM, single point, duplicates
T10 construct: purchased Eurofins CEREP SA

[14] = target: T11, MMP-3 (Homo sapiens, UniProt P08254); test: Off-target screen MMP-3; assay type: biochemical; conditions: 10 µM; single point, duplicates
T11 construct: purchased Eurofins CEREP SA

[15] = target: T12, MMP-9 (Homo sapiens, UniProt P14780); test: Off-target screen MMP-9; assay type: biochemical; conditions: 10 µM; single point, duplicates
T12 construct: purchased Eurofins CEREP SA

[16] = target: T13, Norepinephrine transporter (Homo sapiens, UniProt P23975); test: Off-target screen Norepinephrine transporter; assay type: binding; conditions: 10 µM; single point, duplicates
T13 construct: purchased Eurofins CEREP SA
T13 sequence (P23975 whole entry): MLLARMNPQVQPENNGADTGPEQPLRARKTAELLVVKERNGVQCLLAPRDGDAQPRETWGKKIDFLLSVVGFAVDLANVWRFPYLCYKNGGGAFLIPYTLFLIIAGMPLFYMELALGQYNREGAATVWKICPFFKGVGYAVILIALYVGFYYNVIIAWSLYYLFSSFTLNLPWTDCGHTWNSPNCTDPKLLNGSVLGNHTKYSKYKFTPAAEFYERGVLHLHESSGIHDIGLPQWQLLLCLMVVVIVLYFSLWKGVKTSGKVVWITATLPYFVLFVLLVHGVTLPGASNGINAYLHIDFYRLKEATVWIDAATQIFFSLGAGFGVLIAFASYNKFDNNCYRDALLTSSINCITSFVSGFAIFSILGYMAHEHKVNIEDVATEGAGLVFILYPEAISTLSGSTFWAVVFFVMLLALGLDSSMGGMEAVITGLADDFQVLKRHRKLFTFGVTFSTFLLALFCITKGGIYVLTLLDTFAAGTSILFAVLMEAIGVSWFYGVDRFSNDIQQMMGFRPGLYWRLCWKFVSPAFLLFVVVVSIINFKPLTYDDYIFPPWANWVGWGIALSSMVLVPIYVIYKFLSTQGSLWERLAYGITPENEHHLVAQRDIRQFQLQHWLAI

[17] = target: T14, PDE-5 (Homo sapiens, UniProt O76074); test: Off-target screen PDE-5; assay type: biochemical; conditions: 10 µM; single point, duplicates
T14 construct: purchased Eurofins CEREP SA

[18] = target: T15, PPARγ (Homo sapiens, UniProt P37231); test: Off-target screen PPARγ, agonist mode; assay type: cell-based; conditions: 10 µM, single point, duplicates
T15 construct: purchased Eurofins CEREP SA

[19] = target: T16, Prostaglandin F receptor (Homo sapiens, UniProt P43088); test: Off-target screen Prostaglandin F receptor; assay type: binding; conditions: 10 µM; single point, duplicates
T16 construct: purchased Eurofins CEREP SA
T16 sequence (P43088 whole entry): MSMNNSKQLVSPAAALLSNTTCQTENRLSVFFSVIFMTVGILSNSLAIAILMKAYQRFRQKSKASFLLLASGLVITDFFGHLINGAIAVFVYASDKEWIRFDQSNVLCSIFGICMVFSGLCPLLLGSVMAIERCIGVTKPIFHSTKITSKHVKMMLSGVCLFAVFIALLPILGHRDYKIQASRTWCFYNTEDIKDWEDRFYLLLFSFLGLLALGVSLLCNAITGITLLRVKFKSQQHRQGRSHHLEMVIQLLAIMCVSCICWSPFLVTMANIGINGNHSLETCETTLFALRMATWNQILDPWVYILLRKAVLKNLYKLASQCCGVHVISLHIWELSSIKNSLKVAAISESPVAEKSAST

[20] = target: T17, S1P2 (Homo sapiens, UniProt O95136); test: Off-target screen S1P2, antagonist mode; assay type: cell-based; conditions: 10 µM, single point, duplicates
T17 construct: purchased Eurofins CEREP SA
T17 sequence (O95136 whole entry): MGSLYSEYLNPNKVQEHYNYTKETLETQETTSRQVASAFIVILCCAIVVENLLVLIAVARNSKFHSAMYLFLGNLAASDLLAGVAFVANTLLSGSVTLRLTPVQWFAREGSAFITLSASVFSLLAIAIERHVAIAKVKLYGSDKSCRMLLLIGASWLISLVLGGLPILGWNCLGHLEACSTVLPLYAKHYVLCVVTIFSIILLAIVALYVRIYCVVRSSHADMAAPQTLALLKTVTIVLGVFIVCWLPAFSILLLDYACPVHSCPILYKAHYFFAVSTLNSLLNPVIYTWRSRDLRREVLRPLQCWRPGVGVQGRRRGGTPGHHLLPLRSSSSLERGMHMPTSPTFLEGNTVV

[21] = target: T17, S1P2; test: Off-target screen S1P2, agonist mode; assay type: cell-based; conditions: 10 µM, single point, duplicates
[22] = target: T18, S1P3 (Homo sapiens, UniProt Q99500); test: Off-target screen S1P3, antagonist mode; assay type: cell-based; conditions: 10 µM, single point, duplicates
T18 construct: purchased Eurofins CEREP SA
T18 sequence (Q99500 whole entry): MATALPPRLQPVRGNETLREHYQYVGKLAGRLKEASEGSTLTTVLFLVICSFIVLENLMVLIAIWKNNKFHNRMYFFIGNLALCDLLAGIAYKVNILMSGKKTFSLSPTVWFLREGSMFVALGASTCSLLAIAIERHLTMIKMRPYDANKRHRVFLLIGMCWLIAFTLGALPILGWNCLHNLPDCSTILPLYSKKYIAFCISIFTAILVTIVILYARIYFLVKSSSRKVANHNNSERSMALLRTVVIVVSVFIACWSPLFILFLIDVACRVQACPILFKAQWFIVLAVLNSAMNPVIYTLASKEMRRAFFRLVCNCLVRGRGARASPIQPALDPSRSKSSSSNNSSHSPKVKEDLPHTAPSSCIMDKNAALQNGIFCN

[23] = target: T18, S1P3; test: Off-target screen S1P3, agonist mode; assay type: cell-based; conditions: 10 µM, single point, duplicates
[24] = target: T19, Xanthine oxidase (Bos taurus, UniProt P80457); test: Off-target screen Xanthine oxidase; assay type: biochemical, b; conditions: 10 µM; single point, duplicates
T19 construct: purchased Eurofins CEREP SA

[25] = target: T20, Alpha2A-adrenoreceptor (Homo sapiens, UniProt P08913); test: Off-target screen Alpha2A-adrenoreceptor; assay type: binding; conditions: 10 µM; single point, duplicates
T20 construct: purchased Eurofins CEREP SA
T20 sequence (P08913 whole entry): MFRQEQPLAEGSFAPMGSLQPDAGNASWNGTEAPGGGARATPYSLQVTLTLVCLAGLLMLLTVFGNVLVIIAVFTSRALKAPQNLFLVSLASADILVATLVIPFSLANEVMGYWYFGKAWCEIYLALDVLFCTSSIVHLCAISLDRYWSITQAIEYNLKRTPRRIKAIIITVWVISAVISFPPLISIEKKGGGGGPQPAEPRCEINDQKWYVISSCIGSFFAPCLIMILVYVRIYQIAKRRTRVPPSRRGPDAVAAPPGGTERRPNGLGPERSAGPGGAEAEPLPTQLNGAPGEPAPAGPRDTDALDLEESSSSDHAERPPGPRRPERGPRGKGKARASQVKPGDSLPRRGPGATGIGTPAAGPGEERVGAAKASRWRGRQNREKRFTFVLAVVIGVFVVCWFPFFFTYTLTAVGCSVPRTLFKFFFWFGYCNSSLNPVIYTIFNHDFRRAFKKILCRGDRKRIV

[26] = target: T21, mu opioid receptor (Homo sapiens, UniProt P35372); test: Off-target screen mu opioid receptor; assay type: binding; conditions: 10 µM; single point, duplicates
T21 construct: purchased Eurofins CEREP SA

[27] = target: plasma ATX (Rattus norvegicus, UniProt Q64610); test: in vivo
Experimental: Plasma samples were collected in triplicates at 0, 1, 3, 6, and 24 h and were added to heparinated tubes and kept at 0°C until further processing. Sampling and immediate processing at 0°C is crucial for the measurements of basal levels, since at higher temperatures, LPA is produced rapidly according to the ATX activity in the sample. […] The other 2 aliquots were used to determine ATX activity by incubation of the sample at 37°C for 4 h, followed again by analysis of LPA levels in the same way as for the basal LPA levels.
For all doses (3, 10, and 30 mg/kg po), 5 animals/group were used. […] Values are mean ± SD.
To better observe the modulation of the individual LPA species, a second set of plasma samples was incubated at 37°C for 2 h prior to LC/MS analysis.

[28] = tested on: PCP receptor; test: Off-target screen PCP receptor; conditions: 10 µM; single point, duplicates
[29] = tested on: Ca2^+ channel (diltiazem site); test: Off-target screen Ca2+ channel (diltiazem site); conditions: 10 µM; single point, duplicates

## O=C(OCc1ccc(OC(F)(F)F)cc1)N1C[C@@H]2CN(C(=O)c3ccc4[nH]nnc4c3)C[C@H]2C1 [Compound 13, (3aS,6aS)-5-(1H-Benzotriazole-5-carbonyl)-hexahydro-pyrrolo[3,4-c]pyrrole-2-carboxylic acid 4-trifluoromethoxy-benzyl ester]
[1]
  Mic CL h: 10/10/10 µL/m/mg prot
[2]
  Mic CL r: 10/10/10 µL/m/mg prot
[3]
  GSH adducts: Neg
[4]
  ADAM 17 (h) [% inhib]: 9 % inhib
[5]
  Adenosine A1 respetor (h) [% inhib]: 1 % inhib
[6]
  Adenosine A3 respetor (h) [% inhib]: 33 % inhib
[7]
  Dopamine D2 receptor (h) [% inhib]: 4 % inhib
[8]
  Estrogen receptor alpha (h) [% inhib]: -6 % inhib
[9]
  GSK-3B (h) [% inhib]: -8 % inhib
[10]
  HDAC11 (h) [% inhib]: 0 % inhib
[11]
  HDAC6 (h) [% inhib]: -14 % inhib
[12]
  Histamine H3 receptor (h) [% inhib]: -10 % inhib
[13]
  LPA3 receptor (h), agonist mode [% pos ctrl]: -3 % pos ctrl
[14]
  MMP-3 (h) [% inhib]: 3 % inhib
[15]
  MMP-9 (h) [% inhib]: -22 % inhib
[16]
  Norepinephrine transporter (h) [% inhib]: 20 % inhib
[17]
  PDE-5 (h) [% inhib]: 19 % inhib
[18]
  PPARγ (h), agonist mode [% pos ctrl]: 0 % pos ctrl
[19]
  Prostaglandin F receptor (h) [% inhib]: 26 % inhib
[20]
  S1P2 (h), antago. mode [% inhib]: 45 % inhib
[21]
  S1P2 (h), agonist mode [% pos ctrl]: -2 % pos ctrl
[22]
  S1P3 (h), antago. mode [% inhib]: 47 % inhib
[23]
  S1P3 (h), agonist mode [% pos ctrl]: 8 % pos ctrl
[24]
  Xanthine oxidase (b) [% inhib]: 7 % inhib
[25]
  Alpha2A-adrenoreceptor (h) [% inhib]: 3 % inhib
[26]
  mu opioid receptor (h) [% inhib]: 15 % inhib
[27]
  IC50: ~1.47 nM
[28]
  PCP receptor (r) [% inhib]: -16 % inhib
[29]
  Ca2^+ channel (diltiazem site) (r) [% inhib]: 9 % inhib
